Measurements as given in article PMC3968014, “Design and Synthesis of a Library of Lead-Like 2,4-Bisheterocyclic Substituted Thiophenes as Selective Dyrk/Clk Inhibitors” (PLoS ONE, 2014).
Where “and” joins values, the source holds several entries; their conditions need not be identical. Equal entries are not always repeated.

What was measured:
[1] = target: T1, Dyrk1A (Homo sapiens, UniProt Q13627); assay: Dyrk1A kinase assay (32P-ATP, Woodtide); type: biochemical; details: for IC50: 100 µM ATP; for inhibition at 5 µM: read-out: percentage of inhibition Dyrk1A
T1 construct: encoding the catalytic domain of human Dyrk1A; thrombin cleavage site (N); made in house; host or cells: Escherichia coli BL21(DE3) with pRARE

[2] = target: T2, Dyrk2 (Homo sapiens, UniProt Q92630); assay: Dyrk2 kinase assay (32P-ATP, Woodtide); type: biochemical; details: for IC50: 100 µM ATP, read-out: IC50 Dyrk2; for inhibition at 5 µM: read-out: percentage of inhibition Dyrk2
T2 construct: made in house; host or cells: Escherichia coli BL21(DE3) with pRARE; plasmid pGEX-2TK-Dyrk2 (gift from W. Becker, Aachen)
T2 sequence (Q92630 1-601): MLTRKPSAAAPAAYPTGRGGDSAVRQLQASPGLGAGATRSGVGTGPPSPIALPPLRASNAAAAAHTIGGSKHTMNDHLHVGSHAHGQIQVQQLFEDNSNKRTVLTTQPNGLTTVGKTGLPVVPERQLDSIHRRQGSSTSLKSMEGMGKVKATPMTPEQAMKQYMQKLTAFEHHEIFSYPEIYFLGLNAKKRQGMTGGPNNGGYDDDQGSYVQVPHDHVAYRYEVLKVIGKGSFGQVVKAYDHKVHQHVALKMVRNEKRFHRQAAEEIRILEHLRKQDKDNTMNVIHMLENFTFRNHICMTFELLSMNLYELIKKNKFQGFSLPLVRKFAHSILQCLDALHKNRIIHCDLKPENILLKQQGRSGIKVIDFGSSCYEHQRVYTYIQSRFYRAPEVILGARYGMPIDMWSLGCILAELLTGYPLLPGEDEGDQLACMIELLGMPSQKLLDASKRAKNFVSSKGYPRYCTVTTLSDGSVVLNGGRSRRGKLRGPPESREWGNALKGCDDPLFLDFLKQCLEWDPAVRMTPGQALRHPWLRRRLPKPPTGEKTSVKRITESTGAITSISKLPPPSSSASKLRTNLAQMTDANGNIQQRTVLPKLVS

[3] = target: T3, CK2α (Homo sapiens, UniProt P68400); assay: CK2α kinase assay (counter screen); type: biochemical; details: for inhibition at 5 µM: read-out: percentage of inhibition CK2α
T3 construct: purchased Life Technologies (Invitrogen SelectScreen); Dyrk1A, Dyrk2 and CK2α in-house or gifts
T3 sequence (P68400 whole entry): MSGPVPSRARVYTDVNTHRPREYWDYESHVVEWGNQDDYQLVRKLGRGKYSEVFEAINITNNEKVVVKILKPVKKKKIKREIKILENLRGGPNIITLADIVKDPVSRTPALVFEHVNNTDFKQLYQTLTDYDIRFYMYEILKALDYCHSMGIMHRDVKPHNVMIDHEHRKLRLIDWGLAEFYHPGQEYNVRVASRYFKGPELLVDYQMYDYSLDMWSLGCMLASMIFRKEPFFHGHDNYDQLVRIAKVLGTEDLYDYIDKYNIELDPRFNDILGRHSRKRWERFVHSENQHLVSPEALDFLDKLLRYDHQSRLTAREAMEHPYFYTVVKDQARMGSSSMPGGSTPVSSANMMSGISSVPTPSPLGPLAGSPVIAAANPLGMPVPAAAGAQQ
Procedure: Dyrk1A, Dyrk1B, Dyrk2, CK2α and Clk1 kinase reactions were performed in a reaction buffer containing 50 mM Tris/HCl, pH 7.4, 0.1 mM EGTA, 0.5 mM DTT, 10 mM MgCl2, 100 µM ATP and 0.33 µM [γ-^32ATP] as well as the appropriate substrate peptides, which were 100 µM Woodtide for the Dyrk isoforms ([…]-NH2), 60 µM CK2 substrate peptide ([…]-NH2, from Millipore) for CK2α or RS repeat peptide ([…]) for Clk1. The CK2α protein was a kind gift of M. Montenarh (Homburg). The kinase reactions were performed at 30°C for 15 min and terminated by spotting 5 µL of the reaction mixture onto a P81 phosphocellulose membrane (Whatman). The membrane was washed four times with 0.3% phosphoric acid and one time with acetone and dried. The dry membrane was exposed in a cassette to a Phosphor Screen Imaging Plate (FujiFilm) and the signals detected by scanning of the imaging plate in a Fuji FLA-3000 PhosphoImager. The spots were quantified using AIDA software (Raytest, Version 3.52) to determine the activities of the kinases in the assay reactions. […] IC50 values were calculated by fitting the data with Origin Pro 8.6 (OriginLabs). The calculated IC50 values are representative of at least two independent determinations.

[4] = target: T4, Clk3 (Homo sapiens, UniProt P49761); assay: Selectivity panel Clk3; type: biochemical; details: 5 µM inhibitor
T4 construct: purchased Life Technologies (Invitrogen SelectScreen); Dyrk1A, Dyrk2 and CK2α in-house or gifts
T4 sequence (P49761 whole entry): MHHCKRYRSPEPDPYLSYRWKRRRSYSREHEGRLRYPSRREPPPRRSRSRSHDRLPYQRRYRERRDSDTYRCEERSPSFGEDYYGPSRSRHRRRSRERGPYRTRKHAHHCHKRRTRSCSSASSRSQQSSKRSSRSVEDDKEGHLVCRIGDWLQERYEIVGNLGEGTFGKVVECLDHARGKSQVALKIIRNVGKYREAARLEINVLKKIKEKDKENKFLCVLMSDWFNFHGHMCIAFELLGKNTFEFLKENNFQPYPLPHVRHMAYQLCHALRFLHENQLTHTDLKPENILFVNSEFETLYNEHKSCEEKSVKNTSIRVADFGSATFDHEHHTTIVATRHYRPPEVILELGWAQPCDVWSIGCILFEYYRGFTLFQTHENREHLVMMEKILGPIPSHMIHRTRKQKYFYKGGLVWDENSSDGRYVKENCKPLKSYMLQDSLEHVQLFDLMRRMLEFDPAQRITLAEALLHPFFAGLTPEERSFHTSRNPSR

[5] = target: T5, HIPK1 (Homo sapiens, UniProt Q86Z02); assay: Selectivity panel HIPK1; type: biochemical; details: 5 µM inhibitor
T5 construct: purchased Life Technologies (Invitrogen SelectScreen); Dyrk1A, Dyrk2 and CK2α in-house or gifts
T5 sequence (Q86Z02 whole entry): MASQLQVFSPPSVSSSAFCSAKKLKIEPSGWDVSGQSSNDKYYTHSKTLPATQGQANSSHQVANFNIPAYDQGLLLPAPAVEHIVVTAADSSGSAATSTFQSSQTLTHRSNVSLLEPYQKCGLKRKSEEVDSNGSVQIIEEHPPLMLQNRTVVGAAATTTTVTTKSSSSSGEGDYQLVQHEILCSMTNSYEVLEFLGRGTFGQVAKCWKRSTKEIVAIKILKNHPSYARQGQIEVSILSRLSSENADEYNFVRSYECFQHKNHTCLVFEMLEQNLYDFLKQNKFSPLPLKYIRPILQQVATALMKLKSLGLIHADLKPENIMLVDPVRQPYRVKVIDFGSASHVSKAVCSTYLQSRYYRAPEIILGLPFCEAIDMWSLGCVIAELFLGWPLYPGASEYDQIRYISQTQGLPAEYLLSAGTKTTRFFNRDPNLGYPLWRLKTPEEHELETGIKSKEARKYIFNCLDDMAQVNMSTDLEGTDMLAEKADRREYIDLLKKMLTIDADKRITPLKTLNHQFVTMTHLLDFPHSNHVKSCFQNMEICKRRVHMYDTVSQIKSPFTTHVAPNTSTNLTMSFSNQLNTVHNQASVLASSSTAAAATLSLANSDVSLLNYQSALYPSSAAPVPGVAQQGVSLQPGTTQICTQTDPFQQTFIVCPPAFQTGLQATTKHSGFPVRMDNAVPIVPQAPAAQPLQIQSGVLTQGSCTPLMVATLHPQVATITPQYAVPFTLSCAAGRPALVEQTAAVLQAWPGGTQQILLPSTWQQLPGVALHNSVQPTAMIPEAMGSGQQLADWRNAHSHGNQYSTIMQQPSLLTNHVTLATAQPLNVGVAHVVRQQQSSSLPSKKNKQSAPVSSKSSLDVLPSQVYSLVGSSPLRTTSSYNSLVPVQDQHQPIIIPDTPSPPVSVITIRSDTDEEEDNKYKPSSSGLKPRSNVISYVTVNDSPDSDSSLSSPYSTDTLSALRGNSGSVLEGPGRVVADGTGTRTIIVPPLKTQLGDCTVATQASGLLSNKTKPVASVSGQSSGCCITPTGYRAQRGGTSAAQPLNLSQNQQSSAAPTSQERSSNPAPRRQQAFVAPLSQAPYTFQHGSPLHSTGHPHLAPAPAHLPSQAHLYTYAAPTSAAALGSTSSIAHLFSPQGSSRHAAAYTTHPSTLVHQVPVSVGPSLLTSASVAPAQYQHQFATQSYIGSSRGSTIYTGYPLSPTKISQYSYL

[6] = target: T6, GSK3β (Homo sapiens, UniProt P49841); assay: Selectivity panel GSK3β; type: biochemical; details: 5 µM inhibitor
T6 construct: purchased Life Technologies (Invitrogen SelectScreen); Dyrk1A, Dyrk2 and CK2α in-house or gifts

[7] = target: PIM1 (Homo sapiens, UniProt P11309); assay: Selectivity panel PIM1; type: biochemical; details: for inhibition at 5 µM: 5 µM inhibitor
[8] = target: T7, PRKD2 (PKD2) (Homo sapiens, UniProt Q9BZL6); assay: Selectivity panel PRKD2; type: biochemical; details: 5 µM inhibitor
T7 construct: purchased Life Technologies (Invitrogen SelectScreen); Dyrk1A, Dyrk2 and CK2α in-house or gifts
T7 sequence (Q9BZL6 1-878): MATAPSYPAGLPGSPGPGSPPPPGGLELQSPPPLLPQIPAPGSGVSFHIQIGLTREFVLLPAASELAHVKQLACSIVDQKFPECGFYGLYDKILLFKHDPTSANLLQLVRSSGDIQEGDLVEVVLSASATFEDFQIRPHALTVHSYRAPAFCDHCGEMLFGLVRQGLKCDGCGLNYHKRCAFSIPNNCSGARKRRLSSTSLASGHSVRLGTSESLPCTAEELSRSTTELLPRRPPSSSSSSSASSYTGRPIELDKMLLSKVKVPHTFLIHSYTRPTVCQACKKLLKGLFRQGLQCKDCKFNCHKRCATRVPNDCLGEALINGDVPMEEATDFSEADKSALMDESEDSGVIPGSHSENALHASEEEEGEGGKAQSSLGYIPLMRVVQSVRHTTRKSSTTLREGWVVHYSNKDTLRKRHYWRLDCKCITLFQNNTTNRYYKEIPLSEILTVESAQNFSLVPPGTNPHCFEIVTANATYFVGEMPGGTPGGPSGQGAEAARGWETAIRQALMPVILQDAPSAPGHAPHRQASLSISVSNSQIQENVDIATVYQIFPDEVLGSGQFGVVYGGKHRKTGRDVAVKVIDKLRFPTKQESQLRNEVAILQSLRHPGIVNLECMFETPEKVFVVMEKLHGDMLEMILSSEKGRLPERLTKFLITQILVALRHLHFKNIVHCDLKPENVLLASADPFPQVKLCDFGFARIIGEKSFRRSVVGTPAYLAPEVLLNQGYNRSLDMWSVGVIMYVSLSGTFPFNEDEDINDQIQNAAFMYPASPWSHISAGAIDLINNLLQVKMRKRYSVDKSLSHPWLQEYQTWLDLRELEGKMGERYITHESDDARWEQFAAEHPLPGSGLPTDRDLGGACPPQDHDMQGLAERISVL

[9] = target: T8, Ck1δ (Homo sapiens, UniProt P48730); assay: Selectivity panel Ck1δ; type: biochemical; details: 5 µM inhibitor
T8 construct: purchased Life Technologies (Invitrogen SelectScreen); Dyrk1A, Dyrk2 and CK2α in-house or gifts
T8 sequence (P48730 whole entry): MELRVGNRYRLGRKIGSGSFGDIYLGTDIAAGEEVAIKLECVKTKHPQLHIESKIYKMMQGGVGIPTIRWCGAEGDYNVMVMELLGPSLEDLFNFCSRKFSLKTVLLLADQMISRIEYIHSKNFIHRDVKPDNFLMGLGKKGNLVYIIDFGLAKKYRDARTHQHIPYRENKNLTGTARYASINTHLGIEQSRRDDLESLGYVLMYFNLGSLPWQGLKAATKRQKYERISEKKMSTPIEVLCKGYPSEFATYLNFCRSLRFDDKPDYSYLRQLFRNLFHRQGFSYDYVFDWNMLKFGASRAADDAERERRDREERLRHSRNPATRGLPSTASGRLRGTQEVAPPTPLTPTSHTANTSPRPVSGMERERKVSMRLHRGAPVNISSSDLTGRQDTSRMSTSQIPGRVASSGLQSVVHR

[10] = target: T9, MLK1 (Homo sapiens, UniProt P80192); assay: Selectivity panel MLK1; type: biochemical; details: 5 µM inhibitor
T9 construct: purchased Life Technologies (Invitrogen SelectScreen); Dyrk1A, Dyrk2 and CK2α in-house or gifts
T9 sequence (P80192 whole entry): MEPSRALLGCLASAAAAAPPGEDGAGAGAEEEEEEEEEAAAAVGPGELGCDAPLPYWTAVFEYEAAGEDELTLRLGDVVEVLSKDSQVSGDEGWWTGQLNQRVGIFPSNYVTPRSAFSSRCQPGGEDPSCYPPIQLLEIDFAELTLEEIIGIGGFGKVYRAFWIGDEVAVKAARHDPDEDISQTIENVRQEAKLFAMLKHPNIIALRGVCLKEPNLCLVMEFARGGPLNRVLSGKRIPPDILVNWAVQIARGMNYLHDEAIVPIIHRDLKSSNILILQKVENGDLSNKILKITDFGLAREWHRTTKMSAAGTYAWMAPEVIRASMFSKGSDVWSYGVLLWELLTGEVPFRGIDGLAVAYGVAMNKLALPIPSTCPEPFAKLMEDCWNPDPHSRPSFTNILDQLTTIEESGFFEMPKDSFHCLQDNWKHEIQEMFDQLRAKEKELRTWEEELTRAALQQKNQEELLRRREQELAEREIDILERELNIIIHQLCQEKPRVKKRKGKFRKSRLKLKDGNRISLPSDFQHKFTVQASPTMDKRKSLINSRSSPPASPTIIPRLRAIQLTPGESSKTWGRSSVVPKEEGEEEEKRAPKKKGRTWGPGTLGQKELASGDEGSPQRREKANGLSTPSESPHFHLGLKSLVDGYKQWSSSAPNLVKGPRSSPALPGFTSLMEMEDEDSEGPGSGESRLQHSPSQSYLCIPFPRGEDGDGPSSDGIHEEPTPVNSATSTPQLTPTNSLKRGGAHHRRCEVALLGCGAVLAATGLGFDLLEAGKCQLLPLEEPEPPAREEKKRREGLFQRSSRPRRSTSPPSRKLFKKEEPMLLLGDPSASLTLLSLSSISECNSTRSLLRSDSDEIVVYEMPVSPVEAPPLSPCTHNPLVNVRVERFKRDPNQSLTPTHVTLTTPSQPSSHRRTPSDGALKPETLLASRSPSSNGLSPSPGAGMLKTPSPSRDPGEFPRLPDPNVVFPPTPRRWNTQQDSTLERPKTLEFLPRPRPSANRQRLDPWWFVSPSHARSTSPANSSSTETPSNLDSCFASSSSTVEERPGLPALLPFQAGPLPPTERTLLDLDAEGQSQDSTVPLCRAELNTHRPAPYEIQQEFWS

[11] = target: T10, EGFR (Homo sapiens, UniProt P00533); assay: Selectivity panel EGFR; type: biochemical; details: 5 µM inhibitor
T10 construct: purchased Life Technologies (Invitrogen SelectScreen); Dyrk1A, Dyrk2 and CK2α in-house or gifts
T10 sequence (P00533 25-1210): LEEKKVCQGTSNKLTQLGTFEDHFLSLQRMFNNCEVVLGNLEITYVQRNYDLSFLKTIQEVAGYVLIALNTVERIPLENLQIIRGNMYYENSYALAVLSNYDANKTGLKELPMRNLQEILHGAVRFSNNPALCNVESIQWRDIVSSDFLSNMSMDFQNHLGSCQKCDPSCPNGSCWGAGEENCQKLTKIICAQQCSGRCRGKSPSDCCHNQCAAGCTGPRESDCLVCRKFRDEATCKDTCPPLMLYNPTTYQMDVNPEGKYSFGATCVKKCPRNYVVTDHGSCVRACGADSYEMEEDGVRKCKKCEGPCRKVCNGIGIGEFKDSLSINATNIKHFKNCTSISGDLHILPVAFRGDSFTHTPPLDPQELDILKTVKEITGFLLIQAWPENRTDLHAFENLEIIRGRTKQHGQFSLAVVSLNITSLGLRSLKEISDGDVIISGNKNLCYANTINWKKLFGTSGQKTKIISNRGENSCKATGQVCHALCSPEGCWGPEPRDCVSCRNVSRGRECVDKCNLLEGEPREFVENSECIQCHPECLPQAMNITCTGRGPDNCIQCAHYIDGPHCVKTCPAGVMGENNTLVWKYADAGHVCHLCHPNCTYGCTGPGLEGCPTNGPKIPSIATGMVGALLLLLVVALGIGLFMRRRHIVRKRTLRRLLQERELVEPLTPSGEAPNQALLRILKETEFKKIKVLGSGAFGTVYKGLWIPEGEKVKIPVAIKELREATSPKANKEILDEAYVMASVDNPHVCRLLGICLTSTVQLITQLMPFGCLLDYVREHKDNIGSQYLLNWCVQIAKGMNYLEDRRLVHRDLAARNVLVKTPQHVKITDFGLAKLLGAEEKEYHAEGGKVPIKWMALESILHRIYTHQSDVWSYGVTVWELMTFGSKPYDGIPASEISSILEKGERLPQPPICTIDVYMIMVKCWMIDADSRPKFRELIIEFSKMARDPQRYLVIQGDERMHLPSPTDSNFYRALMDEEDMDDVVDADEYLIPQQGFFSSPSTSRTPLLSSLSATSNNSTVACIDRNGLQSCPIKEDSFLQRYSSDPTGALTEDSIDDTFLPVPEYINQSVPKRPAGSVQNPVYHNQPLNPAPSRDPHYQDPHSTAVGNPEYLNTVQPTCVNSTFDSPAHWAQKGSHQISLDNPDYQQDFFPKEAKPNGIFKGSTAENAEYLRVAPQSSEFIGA

[12] = target: T11, ROS (Homo sapiens, UniProt P08922); assay: Selectivity panel ROS; type: biochemical; details: 5 µM inhibitor
T11 construct: purchased Life Technologies (Invitrogen SelectScreen); Dyrk1A, Dyrk2 and CK2α in-house or gifts

[13] = target: T12, TrkB (Homo sapiens, UniProt Q16620); assay: Selectivity panel TrkB; type: biochemical; details: 5 µM inhibitor
T12 construct: purchased Life Technologies (Invitrogen SelectScreen); Dyrk1A, Dyrk2 and CK2α in-house or gifts

Row | SMILES | IC50 [1] | inhibition at 5 µM [1] [%] | Kd ([1]; calculated with Cheng-Prussoff equation, KM ATP 64 µM) [nM] | IC50 [2] | inhibition at 5 µM [2] [%] | inhibition at 5 µM [3] [%] | inhibition at 5 µM [4] [%] | inhibition at 5 µM [5] [%] | inhibition at 5 µM [6] [%] | IC50 [7] [nM] | inhibition at 5 µM [7] [%] | inhibition at 5 µM [8] [%] | inhibition at 5 µM [9] [%] | inhibition at 5 µM [10] [%] | inhibition at 5 µM [11] [%] | inhibition at 5 µM [12] [%] | inhibition at 5 µM [13] [%] | melting point [°C] | percentage of inhibition CK2α ([3]; at 5 µM) [%]
1 | c1cncc(-c2csc(-c3cncs3)c2)c1 [Compound 48, 3-[5-(1,3-thiazol-5-yl)thiophen-3-yl]pyridine] | 100 nM | 97 | 39 | 40 nM | 100 | 0 | 31 | 9 | 25 | ~5000 | 51 | 0 | 1 | 17 | 15 | 0 | 0 | 69 to 70 | 
2 | Cn1cc(-c2csc(-c3cccnc3)c2)cn1 [Compound 30, 3-[4-(1-methyl-1H-pyrazol-4-yl)thiophen-2-yl]pyridine] |  |  |  | 200 nM and 190 nM | 100 | 9.5 | 17 | 8 | 17 | ~5000 | 52 | -8 | -1 | 16 | 5 | 4 | -5 | 119 to 120 | 10
3 | c1cncc(-c2csc(-c3cnco3)c2)c1 [Compound 33, 3-[5-(1,3-oxazol-5-yl)thiophen-3-yl]pyridine] | 800 nM and 810 nM | 84 |  | 1340 nM and 1300 nM | 77 | 0 | 5 | 7 | 10 | ~5000 | 51 | 0 | 0 | 0 | 0 | 2 | 23 | 86 to 87 | 
4 | c1cncc(-c2cc(-c3cncs3)cs2)c1 [Compound 29, 3-[4-(1,3-thiazol-5-yl)thiophen-2-yl]pyridine] |  |  |  | 400 nM and 430 nM | 93 | 0 | 12 | 4 | 0 |  | 22 | 0 | 0 | 15 | 0 | 0 | 24 | 114 to 115 | 
5 | c1cncc(-c2csc(-c3cncnc3)c2)c1 [Compound 41, 5-[4-(pyridin-3-yl)thiophen-2-yl]pyrimidine] | 900 nM and 880 nM | 85 |  | 3500 nM and 3400 nM | 57 | 0 | 5 | 9 | 14 |  | 14 | 0 | 0 | 3 | 4 | 0 | 22 | 173 to 174 | 
